US10479795B2 (Incyte Corporation, priority 2016, dated 2019)
Where a name gives a salt, the structure may show the parent alone. Read-outs that look alike come from different tables or passages of the source.

Columns and labels:
[1] = tested on: Phosphorylated Ribosomal Protein S6 (RPS6); test: THP-1 RPS6 ELISA Assay; format: cell-based, Human; conditions: THP-1 cells, read-out: PI3Kγ_THP1_RPS6_ELISA IC50
Outline: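 Serum-starved THP-1 cells were preincubated with a concentration range of compound for 2 h at 37 °C, then stimulated with 10 nM MCP-1 for 15 min. Phospho-RPS6 in lysates was quantified by ELISA at 450 nm. IC50 came from percent inhibition versus log inhibitor concentration.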

[2] = target: PI3Kγ (p110γ) Recombinant Human Protein (Homo sapiens (Human), UniProt P48736); test: PI3K-γ Scintillation Proximity Assay; format: biochemical; conditions: read-out: PI3Kγ IC50
Outline: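 Recombinant human p110γ assayed at room temperature in 20 mM MOPS pH 6.7, 10 mM MgCl2, 5 mM DTT, 0.03% CHAPS, 2% DMSO, with 20 μM PIP2 and 2 μM ATP plus [γ-33P]ATP. Product captured on WGA SPA beads overnight and counted; IC50 fitted from % of solvent-control activity versus log inhibitor concentration.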

[3] = target: PI3Kδ (p110δ/p85α) Recombinant Human Protein (Homo sapiens (Human), UniProt O00329); test: PI3Kδ Scintillation Proximity Assay; format: biochemical
Outline: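 Recombinant human p110δ/p85α (3.4 nM) phosphorylates 20 μM di-octanoyl PIP2 using 2 μM ATP spiked with [γ-33P]ATP, 120 min, room temperature, pH 6.7, 2% DMSO. Product measured by scintillation proximity; IC50 from dose-response fit.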

Chain of PI3Kδ (p110δ/p85α) Recombinant Human Protein (O00329 whole entry): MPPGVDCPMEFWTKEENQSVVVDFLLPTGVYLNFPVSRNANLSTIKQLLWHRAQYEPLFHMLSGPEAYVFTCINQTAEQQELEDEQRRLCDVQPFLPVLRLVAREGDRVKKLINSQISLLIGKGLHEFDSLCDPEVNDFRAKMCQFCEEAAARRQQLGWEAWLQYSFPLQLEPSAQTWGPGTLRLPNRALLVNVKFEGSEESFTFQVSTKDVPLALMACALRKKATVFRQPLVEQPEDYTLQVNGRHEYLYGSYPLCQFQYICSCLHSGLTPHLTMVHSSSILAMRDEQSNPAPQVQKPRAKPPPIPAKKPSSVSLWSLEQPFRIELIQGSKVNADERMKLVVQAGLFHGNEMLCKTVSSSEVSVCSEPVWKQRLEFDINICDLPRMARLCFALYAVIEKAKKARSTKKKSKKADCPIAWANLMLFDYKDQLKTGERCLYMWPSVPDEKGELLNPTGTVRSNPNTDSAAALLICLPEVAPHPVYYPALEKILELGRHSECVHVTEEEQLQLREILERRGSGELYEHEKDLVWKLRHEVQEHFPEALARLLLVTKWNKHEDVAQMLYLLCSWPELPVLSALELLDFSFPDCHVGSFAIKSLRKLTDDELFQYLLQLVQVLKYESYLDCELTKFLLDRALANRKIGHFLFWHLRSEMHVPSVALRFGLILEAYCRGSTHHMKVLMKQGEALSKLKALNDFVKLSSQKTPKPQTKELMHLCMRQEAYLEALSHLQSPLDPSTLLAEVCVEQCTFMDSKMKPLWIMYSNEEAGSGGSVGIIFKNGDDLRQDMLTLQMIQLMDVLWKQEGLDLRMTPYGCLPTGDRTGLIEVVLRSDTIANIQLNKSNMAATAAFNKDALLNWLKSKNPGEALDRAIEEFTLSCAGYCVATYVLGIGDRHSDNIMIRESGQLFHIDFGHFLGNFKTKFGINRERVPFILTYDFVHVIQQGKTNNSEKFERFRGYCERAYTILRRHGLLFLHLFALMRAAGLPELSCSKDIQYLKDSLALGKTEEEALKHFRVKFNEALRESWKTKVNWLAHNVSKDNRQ
Chain of PI3Kδ (p110δ/p85α) Recombinant Human Protein (P27986 whole entry partner): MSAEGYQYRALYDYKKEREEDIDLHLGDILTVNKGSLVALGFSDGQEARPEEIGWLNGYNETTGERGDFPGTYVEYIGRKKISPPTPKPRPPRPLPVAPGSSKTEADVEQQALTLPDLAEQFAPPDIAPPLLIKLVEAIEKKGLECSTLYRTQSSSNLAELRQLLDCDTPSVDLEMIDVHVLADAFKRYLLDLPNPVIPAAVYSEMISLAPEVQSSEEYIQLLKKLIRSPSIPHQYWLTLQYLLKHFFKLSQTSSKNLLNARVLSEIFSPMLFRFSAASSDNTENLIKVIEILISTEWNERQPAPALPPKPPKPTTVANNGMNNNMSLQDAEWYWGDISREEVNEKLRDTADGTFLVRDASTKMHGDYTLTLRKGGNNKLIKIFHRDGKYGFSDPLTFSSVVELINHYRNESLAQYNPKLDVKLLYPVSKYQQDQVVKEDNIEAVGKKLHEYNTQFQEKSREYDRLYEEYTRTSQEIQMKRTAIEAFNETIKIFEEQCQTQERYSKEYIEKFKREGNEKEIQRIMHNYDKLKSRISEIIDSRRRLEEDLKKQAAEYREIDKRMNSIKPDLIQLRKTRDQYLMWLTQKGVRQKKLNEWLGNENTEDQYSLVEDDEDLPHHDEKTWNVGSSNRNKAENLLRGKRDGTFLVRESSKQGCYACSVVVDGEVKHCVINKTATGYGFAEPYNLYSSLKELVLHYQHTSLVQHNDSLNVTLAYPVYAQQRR
Chain of PI3Kγ (p110γ) Recombinant Human Protein (P48736 whole entry): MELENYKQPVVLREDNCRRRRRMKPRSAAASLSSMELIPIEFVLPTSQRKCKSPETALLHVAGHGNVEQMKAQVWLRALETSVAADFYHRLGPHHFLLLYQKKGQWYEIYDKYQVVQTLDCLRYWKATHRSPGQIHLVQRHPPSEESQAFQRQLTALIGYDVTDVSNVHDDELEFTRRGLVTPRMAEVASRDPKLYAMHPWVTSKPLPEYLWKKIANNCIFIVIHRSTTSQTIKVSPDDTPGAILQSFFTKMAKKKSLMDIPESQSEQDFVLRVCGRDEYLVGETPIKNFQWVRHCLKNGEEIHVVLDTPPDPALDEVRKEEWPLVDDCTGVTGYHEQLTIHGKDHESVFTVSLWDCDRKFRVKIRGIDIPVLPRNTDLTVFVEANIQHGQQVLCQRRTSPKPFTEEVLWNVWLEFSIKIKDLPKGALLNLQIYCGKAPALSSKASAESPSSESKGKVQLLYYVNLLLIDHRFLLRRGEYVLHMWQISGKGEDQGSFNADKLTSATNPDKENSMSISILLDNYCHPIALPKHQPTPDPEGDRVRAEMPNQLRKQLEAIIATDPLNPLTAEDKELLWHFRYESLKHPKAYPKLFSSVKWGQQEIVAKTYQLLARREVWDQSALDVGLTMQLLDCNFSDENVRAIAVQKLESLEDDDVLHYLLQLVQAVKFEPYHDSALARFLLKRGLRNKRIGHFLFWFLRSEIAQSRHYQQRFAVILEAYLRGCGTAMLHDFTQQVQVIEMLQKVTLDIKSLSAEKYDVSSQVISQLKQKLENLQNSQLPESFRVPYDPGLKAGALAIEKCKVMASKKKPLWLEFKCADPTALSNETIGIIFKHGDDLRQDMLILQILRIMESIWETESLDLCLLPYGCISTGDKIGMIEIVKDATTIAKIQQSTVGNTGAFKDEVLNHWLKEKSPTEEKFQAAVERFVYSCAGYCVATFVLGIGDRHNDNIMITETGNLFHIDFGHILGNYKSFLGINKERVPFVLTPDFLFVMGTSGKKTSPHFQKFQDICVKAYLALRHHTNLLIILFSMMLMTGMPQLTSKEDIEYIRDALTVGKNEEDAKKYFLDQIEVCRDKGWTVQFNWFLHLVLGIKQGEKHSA

Row | Compound | IC50 ([1]; Homo sapiens) | IC50 [2] | IC50 [3] | IC50 [1]
1 | N#CC12CCC(NS(=O)(=O)c3cccc(-c4cnc5c(N)ncnn45)c3)(C1)C2 [Example 364, 3-(4-Aminoimidazo[1,2-f][1,2,4]triazin-7-yl)-N-(4-cyanobicyclo[2.1.1]hexan-1-yl)benzenesulfonamide trifluoroacetate salt] | – | < 0.1 µM | 0.1 to 0.5 µM | < 0.1 µM
2 | Cc1ccc(S(=O)(=O)N[C@H]2CC[C@H](O)CC2)cc1-c1cnc2c(N)cc(-c3cncnc3)cn12 [Example 9, 3-(8-Amino-6-pyrimidin-5-ylimidazo[1,2-a]pyridin-3-yl)-N-(trans-4-hydroxycyclohexyl)-4-methylbenzenesulfonamide] | > 1 µM | < 0.1 µM | 0.5 to 2 µM | –
3 | Cc1ccc(S(=O)(=O)NC2CC(F)(F)C2)cc1-c1cnc2c(N)nc(C(=O)NC3CCC3)cn12 [Example 448, 8-amino-N-cyclobutyl-3-(5-(N-(3,3-difluorocyclobutyl)sulfamoyl)-2-methylphenyl)imidazo[1,2-a]pyrazine-6-carboxamide trifluoroacetate salt] | 0.1 to 0.5 µM | < 0.1 µM | 0.5 to 2 µM | –
4 | Cc1ccc(S(=O)(=O)N[C@H]2CC[C@H](O)CC2)cc1-c1cnc2c(N)cccn12 [Example 1, 3-(8-Aminoimidazo[1,2-a]pyridin-3-yl)-N-(trans-4-hydroxycyclohexyl)-4-methylbenzenesulfonamide trifluoroacetate] | > 1 µM | 0.1 to 0.5 µM | 0.5 to 2 µM | –
5 | Cc1ccc(S(=O)(=O)NCC2CCC(F)(F)CC2)cc1-c1cnc2c(N)ncnn12 [Example 130, 3-(4-aminoimidazo[2,1-f][1,2,4]triazin-7-yl)-N-((4,4-difluorocyclohexyl)methyl)-4-methylbenzenesulfonamide] | 0.5 to 1 µM | < 0.1 µM | 0.5 to 2 µM | –
6 | Cc1nc(N)c2ncc(-c3cc(S(=O)(=O)NC45CCC(CO)(C4)C5)ccc3C)n2n1 [Example 268, 3-(4-Amino-2-methylimidazo[1,2-f][1,2,4]triazin-7-yl)-N-(4-(hydroxymethyl)bicyclo[2.1.1]hexan-1-yl)-4-methylbenzenesulfonamide trifluoroacetate salt] | – | < 0.1 µM | 0.1 to 0.5 µM | 0.1 to 0.5 µM
7 | CCS(=O)(=O)Nc1cc(-c2cnc3c(N)nccn23)cnc1F [Example 14, N-[5-(8-Aminoimidazo[1,2-a]pyrazin-3-yl)-2-fluoropyridin-3-yl]ethanesulfonamide bis(trifluoroacetate)] | > 1 µM | < 0.1 µM | < 0.1 µM | –
8 | Cc1ccc(S(=O)(=O)NCC2(F)CCOCC2)cc1-c1cnc2c(N)ncnn12 [Example 134, 3-(4-aminoimidazo[2,1-f][1,2,4]triazin-7-yl)-N-((4-fluorotetrahydro-2H-pyran-4-yl)methyl)-4-methylbenzenesulfonamide] | 0.1 to 0.5 µM | < 0.1 µM | 0.5 to 2 µM | –
9 | Cc1ccc(S(=O)(=O)NC23CC(C#N)(C2)C3)cc1-c1cnc2c(N)ncnn12 [Example 250, 3-(4-Aminoimidazo[2,1-f][1,2,4]triazin-7-yl)-N-(3-cyanobicyclo[1.1.1]pentan-1-yl)-4-methylbenzenesulfonamide] | 0.1 to 0.5 µM | < 0.1 µM | 0.1 to 0.5 µM | –
10 | Cc1ccc(S(=O)(=O)N[C@H]2CC[C@H](O)CC2)cc1-c1cnc2c(N)cc(-c3cnn(C)c3)cn12 [Example 8, 3-[8-Amino-6-(1-methyl-1H-pyrazol-4-yl)imidazo[1,2-a]pyridin-3-yl]-N-(trans-4-hydroxycyclohexyl)-4-methylbenzenesulfonamide bis(trifluoroacetate)] | > 1 µM | < 0.1 µM | 0.1 to 0.5 µM | –
11 | Cc1ccc(S(=O)(=O)NCC2CCS(=O)(=O)C2)cc1-c1cnc2c(N)ncnn12 (stereo not drawn) [Example 135, 3-(4-aminoimidazo[2,1-f][1,2,4]triazin-7-yl)-N-((1,1-dioxidotetrahydrothiophen-3-yl)methyl)-4-methylbenzenesulfonamide] | > 1 µM | < 0.1 µM | 0.1 to 0.5 µM | –
12 | Cc1ccc(S(=O)(=O)NCC2(F)COC2)cc1-c1cnc2c(N)nc(C(F)(F)F)nn12 [Example 315, 3-(4-Amino-2-(trifluoromethyl)imidazo[1,2-f][1,2,4]triazin-7-yl)-N-((3-fluorooxetan-3-yl)methyl)-4-methylbenzenesulfonamide trifluoroacetate salt] | – | < 0.1 µM | < 0.1 µM | < 0.1 µM
13 | N#CC12CCC(NS(=O)(=O)c3cc(-c4cnc5c(N)nc(C(F)(F)F)nn45)ccc3Cl)(C1)C2 [Example 414, 5-(4-Amino-2-(trifluoromethyl)imidazo[1,2-f][1,2,4]triazin-7-yl)-2-chloro-N-(4-cyanobicyclo[2.1.1]hexan-1-yl)benzenesulfonamide] | – | < 0.1 µM | < 0.1 µM | 0.1 to 0.5 µM
14 | Cc1ccc(S(=O)(=O)NC23CC(c4cnco4)(C2)C3)cc1-c1cnc2c(N)nc(C(F)(F)F)cn12 [Example 279, 3-(8-Amino-6-(trifluoromethyl)imidazo[1,2-a]pyrazin-3-yl)-4-methyl-N-(3-(oxazol-5-yl)bicyclo[1.1.1]pentan-1-yl)benzenesulfonamide trifluoroacetate salt] | < 0.1 µM | < 0.1 µM | < 0.1 µM | –
15 | Cc1ccc(S(=O)(=O)N[C@H]2CC[C@H](O)CC2)cc1-c1cnc2c(N)nc(-c3ccncc3)cn12 [Example 25, 3-(8-Amio-6-pyridin-4-ylimidazo[1,2-a]pyrazin-3-yl)-N-(trans-4-hydroxycyclohexyl)-4-methylbenzenesulfonamide] | 0.1 to 0.5 µM | < 0.1 µM | 0.1 to 0.5 µM | –
16 | Cc1ccc(S(=O)(=O)NC23CC(F)(C2)C3)cc1-c1cnc2c(N)nc(C(F)(F)F)nn12 [Example 333, 3-(4-Amino-2-(trifluoromethyl)imidazo[1,2-f][1,2,4]triazin-7-yl)-N-(3-fluorobicyclo[1.1.1]pentan-1-yl)-4-methylbenzenesulfonamide trifluoroacetate salt] | – | < 0.1 µM | 0.1 to 0.5 µM | < 0.1 µM
17 | Nc1ncnn2c(-c3ccc(Cl)c(S(=O)(=O)NC45CCC(CO)(C4)C5)c3)cnc12 [Example 367, 5-(4-Aminoimidazo[1,2-f][1,2,4]triazin-7-yl)-2-chloro-N-(4-(hydroxymethyl)bicyclo[2.1.1]hexan-1-yl)benzenesulfonamide trifluoroacetate salt] | – | < 0.1 µM | 0.1 to 0.5 µM | > 1 µM

Other lines, results leading:

Row | IC50 ([1]; Homo sapiens) | IC50 [2] | IC50 [3] | IC50 [1] | Compound
18 | 0.5 to 1 µM | < 0.1 µM | 0.5 to 2 µM | – | Cc1ccc(S(=O)(=O)CC(C)O)cc1-c1cnc2c(N)nc(C(F)(F)F)cn12 (stereo not drawn) [Example 496, 1-((3-(8-Amino-6-(trifluoromethyl)imidazo[1,2-a]pyrazin-3-yl)-4-methylphenyl)sulfonyl)propan-2-ol trifluoroacetate]
19 | – | < 0.1 µM | 0.1 to 0.5 µM | 0.1 to 0.5 µM | Cc1ccc(S(=O)(=O)NCC2(C#N)CCC2)cc1-c1cnc2c(N)ncnn12 [Example 102, 3-(4-Aminoimidazo[1,2-f][1,2,4]triazin-7-yl)-N-((1-cyanocyclobutyl)methyl)-4-methylbenzenesulfonamide trifluoroacetate salt]
20 | 0.1 to 0.5 µM | < 0.1 µM | 0.1 to 0.5 µM | – | Cc1ccc(S(=O)(=O)NC23CCC(C(C)O)(CC2)OC3)cc1-c1cnc2c(N)ncnn12 (racemic) [Example 432, 3-(4-Aminoimidazo[1,2-f][1,2,4]triazin-7-yl)-N-(1-(1-hydroxyethyl)-2-oxabicyclo[2.2.2]octan-4-yl)-4-methylbenzenesulfonamide trifluoroacetate salt (racemic)]
21 | 0.1 to 0.5 µM | < 0.1 µM | 0.5 to 2 µM | – | Nc1nc(C(F)(F)F)cn2c(-c3cc(S(=O)(=O)NC45CCC(CO)(C4)C5)ccc3Cl)cnc12 [Example 393, 3-(8-Amino-6-(trifluoromethyl)imidazo[1,2-a]pyrazin-3-yl)-4-chloro-N-(4-(hydroxymethyl)bicyclo[2.1.1]hexan-1-yl)benzenesulfonamide]
22 | < 0.1 µM | < 0.1 µM | < 0.1 µM | – | Cc1cc(C)c(S(=O)(=O)NC23CCC(CO)(C2)C3)cc1-c1cnc2c(N)nc(C(F)(F)F)cn12 [Example 400, 5-(8-Amino-6-(trifluoromethyl)imidazo[1,2-a]pyrazin-3-yl)-N-(4-(hydroxymethyl)bicyclo[2.1.1]hexan-1-yl)-2,4-dimethylbenzenesulfonamide trifluoroacetate salt]
23 | 0.1 to 0.5 µM | < 0.1 µM | 0.1 to 0.5 µM | – | COc1cnccc1-c1cn2c(-c3cc(S(C)(=O)=O)ccc3C)cnc2c(N)n1 [Example 485, 6-(3-Methoxypyridin-4-yl)-3-(2-methyl-5-(methylsulfonyl)phenyl)imidazo[1,2-a]pyrazin-8-amine trifluoroacetate]
24 | < 0.1 µM | < 0.1 µM | 0.1 to 0.5 µM | – | Cc1ccc(S(=O)(=O)NC23CC(CF)(C2)C3)cc1-c1cnc2c(N)nc(C(F)(F)F)cn12 [Example 286, 3-(8-Amino-6-(trifluoromethyl)imidazo[1,2-a]pyrazin-3-yl)-N-(3-(fluoromethyl)bicyclo[1.1.1]pentan-1-yl)-4-methylbenzenesulfonamide trifluoroacetate salt]
